According to article PMC12292835, “Amylin Receptor 1 Mutagenesis Revealed a Potential Role of Calcitonin Serine 29 in Receptor Interaction” (Biomedicines, 2025):
Where a SMILES comes first, the peptide text is derived from it. The star is where a group is joined. FITC = O=C1OC2(c3ccc(O)cc3Oc3cc(O)ccc32)c2ccc(NC(=S)*)cc21

Experiments:
[1] = target: T1, amylin receptor 1 ECD with calcitonin receptor D97A mutation (Homo sapiens, UniProt O60894+P30988, D97A); experiment: FP saturation binding, D97A; conditions: for Average fluorescence intensity change upon receptor ECD binding: % of a free probe intensity, Mean ± S.D., max receptor 3 μM (sCT), 1 μM (AC413)
T1 construct: pHLsec/hRAMP1.24–111-(GSA)3-hCTR.34–141.D97A-H6 (D-pSL009); H6 (hexahistidine) (C); made in house; host or cells: HEK293 (transient transfection, secreted, N-glycosylated)
Source text: (§1) pHLsec-based vectors were used to express wild-type and mutated amylin receptor 1 extracellular domains as secreted proteins to cell culture media. The plasmid DNA construct of the wild-type amylin receptor 1 extracellular domain, pHLsec/hRAMP1.24–111-(GSA)3-hCTR.34–141-H6 (H-pSL005) was previously described. The following DNA vector plasmids were made for this study: pHLsec/hRAMP1.24–111-(GSA)3-hCTR.34–141.D97A-H6 (D-pSL009), pHLsec/hRAMP1.24–111-(GSA)3-hCTR.34–141.D97E-H6 (D-pJS001), pHLsec/hRAMP1.24–111-(GSA)3-hCTR.34–141.D101A-H6 (D-pJJ003), pHLsec/hRAMP1.24–111-(GSA)3-hCTR.34–141.D101E-H6 (D-pJJ002), pHLsec/hRAMP1.24–111-(GSA)3-hCTR.34–141.E123A-H6 (D-pJJ004), pHLsec/hRAMP1.24–111-(GSA)3-hCTR.34–141.E123D-H6 (D-pJJ001), pHLsec/hRAMP1.24–111-(GSA)3-hCTR.34–141.N124A-H6 (D-pJS005), pHLsec/hRAMP1.24–111-(GSA)3-hCTR.34–141.N124D-H6 (D-pJS006), pHLsec/hRAMP1.24–111-(GSA)3-hCTR.34–141.N135A-H6 (D-pJW001), and pHLsec/hRAMP1.24–111-(GSA)3-hCTR.34–141.N135D-H6 (D-pJS002). The mutations were introduced to the calcitonin receptor extracellular domain by using DNA Assembly reaction. Coding sequences of the receptor expression vectors were confirmed with Sanger sequencing by Bionics (Seoul, Republic of Korea). DNA plasmid vectors were extracted and were purified from bacterial cells with NucleoBond® Extra Midi Plus kit (Macherey-Nagel, Germany). The purified DNA vectors were stored at −20 °C until their use for mammalian cell transfection.
(§2) The overall experimental procedure of reconstituting the functional amylin receptor 1 extracellular domain (ECD) as the fusion protein of RAMP1 ECD and the calcitonin receptor ECD was previously described. The wild-type and mutated amylin receptor 1 ECDs were expressed from HEK293 cells with transient transfection with polyethylenimine. The expressed receptor proteins were secreted to cell culture media for 4 days at 37 °C. The media were collected for the receptor protein purification. Initial dialysis was performed with the dialysis buffer (Tris 25 mM (pH 7.4), NaCl 150 mM, and imidazole 10 mM) overnight. […] Then, a size exclusion column chromatography (SEC) was performed with SEC column (Cytiva, HiLoad® 16/600 Superdex® 200 pg) and SEC buffer (Tris 50 mM (pH 7.4), NaCl 150 mM, and glycerol (v/v) 10%) as previously described. As the final step, the purified receptor proteins were dialyzed to storage buffer (HEPES 25 mM (pH 7.4), NaCl 150 mM, and glycerol (v/v) 50 %) and were stored at −60 °C until their use for the receptor–ligand binding assay. […]
(§3) The overall procedure of the FP binding assay with a saturation binding format was previously described. […] FITC-labeled peptide probes were incubated for 1 h at room temperature with the purified receptor protein prior to fluorescence signal measurement. […]

[2] = target: T2, amylin receptor 1 ECD with calcitonin receptor E123D mutation (Homo sapiens, UniProt O60894+P30988, E123D); experiment: FP saturation binding, E123D; conditions: for Average fluorescence intensity change upon receptor ECD binding: % of a free probe intensity, Mean ± S.D., max receptor 3 μM (sCT), 1 μM (AC413); for effect of mutation on binding affinity: compared with E123A, in words
T2 construct: pHLsec/hRAMP1.24–111-(GSA)3-hCTR.34–141.E123D-H6 (D-pJJ001); H6 (hexahistidine) (C); made in house; host or cells: HEK293 (transient transfection, secreted, N-glycosylated)
Source text: as §1, §2, §3

[3] = target: T3, amylin receptor 1 ECD with calcitonin receptor D101A mutation (Homo sapiens, UniProt O60894+P30988, D101A); experiment: FP saturation binding, D101A; conditions: for Average fluorescence intensity change upon receptor ECD binding: % of a free probe intensity, Mean ± S.D., max receptor 1 μM; for effect of mutation on binding affinity: in words
T3 construct: pHLsec/hRAMP1.24–111-(GSA)3-hCTR.34–141.D101A-H6 (D-pJJ003); H6 (hexahistidine) (C); made in house; host or cells: HEK293 (transient transfection, secreted, N-glycosylated)
Source text: as §1, §2, §3

[4] = target: T4, amylin receptor 1 ECD with calcitonin receptor E123A mutation (Homo sapiens, UniProt O60894+P30988, E123A); experiment: FP saturation binding, E123A; conditions: for Average fluorescence intensity change upon receptor ECD binding: % of a free probe intensity, Mean ± S.D., E123A, max receptor 3 μM (sCT), 1 μM (AC413); for decrease of binding affinity: E123A versus wild-type receptor ECD
T4 construct: pHLsec/hRAMP1.24–111-(GSA)3-hCTR.34–141.E123A-H6 (D-pJJ004); H6 (hexahistidine) (C); made in house; host or cells: HEK293 (transient transfection, secreted, N-glycosylated)
Source text: as §1, §2, §3

[5] = target: T5, amylin receptor 1 ECD with calcitonin receptor N135A mutation (Homo sapiens, UniProt O60894+P30988, N135A); experiment: FP saturation binding, N135A; conditions: for Average fluorescence intensity change upon receptor ECD binding: % of a free probe intensity, Mean ± S.D., max receptor 3 μM (sCT), 1 μM (AC413); for effect of mutation on binding affinity: in words
T5 construct: pHLsec/hRAMP1.24–111-(GSA)3-hCTR.34–141.N135A-H6 (D-pJW001); H6 (hexahistidine) (C); made in house; host or cells: HEK293 (transient transfection, secreted, N-glycosylated)
Source text: as §1, §2, §3

T3 sequence (O60894 24-111): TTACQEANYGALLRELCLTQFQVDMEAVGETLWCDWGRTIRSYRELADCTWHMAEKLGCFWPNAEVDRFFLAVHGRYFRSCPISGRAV
T3 sequence (P30988 34-141 D101A): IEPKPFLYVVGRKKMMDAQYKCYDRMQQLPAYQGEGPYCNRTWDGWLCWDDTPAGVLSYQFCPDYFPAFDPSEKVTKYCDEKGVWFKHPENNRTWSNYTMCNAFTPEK
T2 sequence (O60894 24-111): as the sequence (O60894 24-111) above
T2 sequence (P30988 34-141 E123D): as the sequence (P30988 34-141 D101A) above, with A68D, E90D counted along it
T5 sequence (O60894 24-111): as the sequence (O60894 24-111) above
T5 sequence (P30988 34-141 N135A): as the sequence (P30988 34-141 D101A) above, with A68D, N102A counted along it
T1 sequence (O60894 24-111): as the sequence (O60894 24-111) above
T1 sequence (P30988 34-141 D97A): as the sequence (P30988 34-141 D101A) above, with D64A, A68D counted along it
T4 sequence (O60894 24-111): as the sequence (O60894 24-111) above
T4 sequence (P30988 34-141 E123A): as the sequence (P30988 34-141 D101A) above, with A68D, E90A counted along it

Structure (SMILES) | Average fluorescence intensity change upon receptor ECD binding ([1]; D97A) [%] | effect of mutation on binding affinity ([1]; D97A, in words) | Average fluorescence intensity change upon receptor ECD binding [2] [%] | effect of mutation on binding affinity [2] | Average fluorescence intensity change upon receptor ECD binding [3] [%] | effect of mutation on binding affinity [3] | Average fluorescence intensity change upon receptor ECD binding [4] [%] | decrease of binding affinity [4] [fold] | Average fluorescence intensity change upon receptor ECD binding [5] [%] | effect of mutation on binding affinity [5] | decrease of binding affinity ([1]; D97A versus wild-type receptor ECD) [fold]
CC(C)C[C@H](NC(=O)[C@H](CCCNC(=N)N)NC(=O)[C@@H](NC(=O)[C@H](CC(C)C)NC(=O)[C@H](Cc1ccccc1)NC(=O)[C@H](CC(N)=O)NC(=O)[C@H](C)NC(=S)Nc1ccc2c(c1)C(=O)OC21c2ccc(O)cc2Oc2cc(O)ccc21)C(C)C)C(=O)N[C@@H](CCC(N)=O)C(=O)N[C@H](C(=O)N[C@@H](Cc1ccc(O)cc1)C(=O)N1CCC[C@H]1C(=O)N[C@@H](CCCNC(=N)N)C(=O)N[C@H](C(=O)N[C@@H](CC(N)=O)C(=O)N[C@H](C(=O)NCC(=O)N[C@@H](C)C(=O)N[C@@H](CC(N)=O)C(=O)N[C@H](C(=O)N1CCC[C@H]1C(N)=O)[C@@H](C)O)C(C)C)[C@@H](C)O)[C@@H](C)O [FITC-AC413(6–25) Y25P] ({FITC}-ANFLVRLQTYPRTNVGANTP-NH2; C-terminus assumed) | 71 ± 4 | not significantly changed | 72 ± 4 | failed to restore the decreased binding affinity | 97 ± 3 | markedly decreased the binding affinity | 77 ± 13 | 2.3 | 87 ± 15 | markedly decreased the binding affinity | 
C[C@@H](O)[C@H](NC(=O)[C@H](CC(N)=O)NC(=O)[C@@H](NC(=O)[C@H](CCCNC(=N)N)NC(=O)[C@@H]1CCCN1C(=O)[C@H](Cc1ccc(O)cc1)NC(=S)Nc1ccc2c(c1)C(=O)OC21c2ccc(O)cc2Oc2cc(O)ccc21)[C@@H](C)O)C(=O)NCC(=O)N[C@@H](CO)C(=O)NCC(=O)N[C@H](C(=O)N1CCC[C@H]1C(N)=O)[C@@H](C)O [FITC-sCT(22–32)] ({FITC}-YPRTNTGSGTP-NH2; C-terminus assumed) | 75 ± 12 |  | 72 ± 6 | fully restored the decreased binding affinity | 101 ± 4 | markedly decreased the binding affinity | 72 ± 1 | 4.5 | 81 ± 10 | markedly decreased the binding affinity | 6.8
